In patent US8993574B2, “Pyrrole antifungal agents” (F2G Ltd, priority 2008, dated 2015):
≈ marks a conversion by molar mass, not a printed value.

Legend:
Type in all cases: cell-based
[1] = system: Aspergillus flavus; test: MIC, YAG medium; settings: Aspergillus flavus, 24 h, 24 h at 35° C, MIC banded into grades, read-out: MIC grade, A. flavus
Summary of the method: (§1)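 Endpoint is growth at OD 485 nm after 24 h at 35° C, with MIC defined as the lowest drug level giving >70% inhibition relative to untreated wells and recorded in mg/L. Tests ran in YAG broth with 1−2×10^4 cfu/mL spore inocula from Sabouraud-grown cultures. Drug ranges were 50-0.05 mg/L, repeated at 0.5-0.0005 mg/L when needed.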

[2] = system: Aspergillus fumigatus AF210; test: MIC, YAG medium; settings: Aspergillus fumigatus, 24 h at 35° C, MIC banded into grades, read-out: MIC grade, A. fumigatus 210
Summary of the method: as §1

[3] = system: Aspergillus fumigatus AF293; test: MIC, YAG medium; settings: Aspergillus fumigatus, 24 h at 35° C, MIC banded into grades, read-out: MIC grade, A. fumigatus
Summary of the method: as §1

[4] = system: Aspergillus niger; test: MIC, YAG medium; settings: Aspergillus niger, 24 h at 35° C, MIC banded into grades, read-out: MIC grade, A. niger
Summary of the method: as §1

[5] = system: Aspergillus terreus AT49; test: MIC, YAG medium; settings: Aspergillus terreus, 24 h at 35° C, MIC banded into grades, read-out: MIC grade, A. terreus 49
Summary of the method: as §1

[6] = system: Aspergillus terreus AT4; test: MIC, YAG medium; settings: Aspergillus terreus, 24 h at 35° C, MIC banded into grades, read-out: MIC grade, A. terreus
Summary of the method: as §1

[7] = system: Aspergillus flavus; test: MIC, RPMI medium; settings: Aspergillus flavus, MIC banded into grades, read-out: MIC grade, A. flavus
Summary of the method: (§2)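 RPMI (2% glucose, 0.135 M MOPS, pH 7.0) microdilution; drug 50-0.05 mg/L doubling series; inoculum 1−2×10^4 cfu/mL; 24-48 h, 35° C; OD485; MIC = lowest conc. with >80% inhibition vs drug-free control.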

[8] = system: Aspergillus fumigatus AF210; test: MIC, RPMI medium; settings: Aspergillus fumigatus, AF210, MIC banded into grades, read-out: MIC grade, A. fumigatus 210
Summary of the method: as §2

[9] = system: Aspergillus fumigatus AF293; test: MIC, RPMI medium; settings: Aspergillus fumigatus, AF293, MIC banded into grades, read-out: MIC grade, A. fumigatus
Summary of the method: as §2

[10] = system: Aspergillus niger; test: MIC, RPMI medium; settings: Aspergillus niger, MIC banded into grades, read-out: MIC grade, A. niger
Summary of the method: as §2

[11] = system: Aspergillus terreus AT49; test: MIC, RPMI medium; settings: Aspergillus terreus, AT49, MIC banded into grades, read-out: MIC grade, A. terreus 49
Summary of the method: as §2

[12] = system: Aspergillus terreus AT4; test: MIC, RPMI medium; settings: Aspergillus terreus, AT4, MIC banded into grades, read-out: MIC grade, A. terreus
Summary of the method: as §2

| Compound | MIC [1] [µg/mL] | MIC [2] [µg/mL] | MIC [3] [µg/mL] | MIC [4] [µg/mL] | MIC [5] [µg/mL] | MIC [6] [µg/mL] | MIC [7] [µg/mL] | MIC [8] [µg/mL] | MIC [9] [µg/mL] | MIC [10] [µg/mL] | MIC [11] [µg/mL] | MIC [12] [µg/mL] |
| --- | --- | --- | --- | --- | --- | --- | --- | --- | --- | --- | --- | --- |
| CC(=O)NCCn1c(C)cc(-c2ccccc2)c1C(=O)C(=O)Nc1ccc(N2CCN(c3cc(C)cc(C)n3)CC2)cc1 [Example 65, 2-[1-(2-Acetylamino-ethyl)-5-methyl-3-phenyl-1H-pyrrol-2-yl]-N-{4-[4-(4,6-dimethyl-pyridin-2-yl)-piperazin-1-yl]-phenyl}-2-oxo-acetamide] | > 10 | > 10 | > 10 | > 10 | > 10 | > 10 | > 10 | > 10 | > 10 | > 10 | > 10 | > 10 |
| Cc1cc(C)nc(N2CCN(c3ccc(NC(=O)C(=O)c4c(-c5ccccc5)cc5n4CCOC5)cc3)CC2)c1 [Example 7, N-{4-[4-(4,6-Dimethyl-pyridin-2-yl)-piperazin-1-yl]-phenyl}-2-oxo-2-(7-phenyl-3,4-dihydro-1H-pyrrolo[2,1-c][1,4]oxazin-6-yl)-acetamide] | < 1 | < 1 | < 1 | < 1 | < 1 | < 1 | < 1 | < 1 | < 1 | < 1 | < 1 | < 1 |
| Cc1cc(C)nc(N2CCN(c3ccc(NC(=O)C(=O)c4c(-c5ccccc5)cc(C)n4C)cc3Cl)CC2)c1 [Example 11, N-{3-Chloro-4-[4-(4,6-dimethyl-pyridin-2-yl)-piperazin-1-yl]-phenyl}-2-(1,5-dimethyl-3-phenyl-1H-pyrrol-2-yl)-2-oxo-acetamide] | < 1 | < 1 | < 1 | < 1 | < 1 | < 1 | < 1 | < 1 | < 1 | < 1 | < 1 | < 1 |
| Cc1cc(-c2ccccc2)c(C(=O)C(=O)Nc2cccc3ccccc23)n1C [Example 16, 2-(1,5-Dimethyl-3-phenyl-1H-pyrrol-2-yl)-N-naphthalen-1-yl-2-oxo-acetamide] | < 1 | < 1 | < 1 | < 1 | < 1 | < 1 | < 1 | 1 to 10 (≈ 2.71 to 27.1 µM) | < 1 | < 1 | < 1 | < 1 |
| Cc1cc(C)nc(N2CCN(c3ccc(NC(=O)C(=O)c4c(-c5ccccc5)cc(C)n4Cc4ccncc4)cc3)CC2)c1 [Example 102, N-{4-[4-(4,6-Dimethyl-pyridin-2-yl)-piperazin-1-yl]-phenyl}-2-(5-methyl-3-phenyl-1-pyridin-4-ylmethyl-1H-pyrrol-2-yl)-2-oxo-acetamide] | > 10 | > 10 | 1 to 10 (≈ 1.71 to 17.1 µM) | > 10 | > 10 | > 10 | > 10 | > 10 | > 10 | > 10 | > 10 | > 10 |
